Patent publication US12622863B2, “Injectable composition and use of said composition” (INNATE S.R.L., priority 2020, dated 2026)

System: hyaluronidase
Assay: degradation of hyaluronic acid by standard hyaluronidase
Format: biochemical
Excerpt: In the composition, the nicotinamide is not only a functional excipient adapted to protect the hyaluronic acid by virtue of its antioxidant action, but also acts against the action of the hyaluronidase, allowing the viscosupplementation features to be maintained over time. Experimental tests have shown that in a composition without nicotinamide, the hyaluronic acid is degraded by a 50% standard hyaluronidase after one hour; on the contrary, with a presence of nicotinamide in the percentages described above, the hyaluronic acid degrades by only 20% after one hour, while the normal products on the market degrade by 70%.

inhibitory effect on hyaluronidase: inhibitory effect on hyaluronidase
SMILES: NC(=O)c1cccnc1 [nicotinamide]
